From ChEMBL document CHEMBL1149255, “An in silico approach to discovering novel inhibitors of human sirtuin type 2” (J Med Chem, 2004)

Target: T1, NAD-dependent protein deacetylase sirtuin-2 (Homo sapiens, UniProt Q8IXJ6)
T1 sequence (Q8IXJ6 whole entry): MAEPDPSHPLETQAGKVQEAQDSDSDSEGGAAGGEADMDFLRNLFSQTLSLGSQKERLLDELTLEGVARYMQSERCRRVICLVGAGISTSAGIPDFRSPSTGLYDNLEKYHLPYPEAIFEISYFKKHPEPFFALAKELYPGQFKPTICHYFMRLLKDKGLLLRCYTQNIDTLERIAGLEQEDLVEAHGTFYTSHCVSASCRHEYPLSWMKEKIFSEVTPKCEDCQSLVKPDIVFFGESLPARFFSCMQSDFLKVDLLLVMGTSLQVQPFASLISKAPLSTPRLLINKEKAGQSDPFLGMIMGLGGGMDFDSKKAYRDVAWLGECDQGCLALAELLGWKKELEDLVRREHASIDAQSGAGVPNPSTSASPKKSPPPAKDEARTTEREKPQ
Experiment: Inhibition of human recombinant GST-tagged SIRT2 by histone deacetylase assay

SMILES | IC50
Cc1ncc(CSc2ccccc2/N=C/c2cc(Cl)cc(Cl)c2O)c(CO)c1O | 0.0743 mM
Oc1ccccc1/C=N/c1ccc(OCCCCOc2ccc(/N=C/c3ccccc3O)cc2)cc1 | > 1 mM
O=C(O)/C=C/C(=O)Nc1cccc(NC(=O)c2ccccc2O)c1 | > 1 mM
Oc1ccccc1/C=N/c1ccc(OCCCOc2ccc(/N=C/c3ccccc3O)cc2)cc1 | > 1 mM
O=C(O)CCCCOc1ccc2oc3ccccc3c(=O)c2c1 | > 1 mM
O=C(Nc1ccc(COc2ccccc2)cc1)Nc1cccc(C(=O)O)c1 | > 0.3 mM
CC(C)(C)OC(=O)NC(Cc1ccccc1)C(=O)OCc1ccc(CC(=O)O)cc1 (stereo not given) | > 1 mM
COc1cc(NC(=O)c2ccccc2)c(C)cc1NC(=O)CC(CC(=O)O)c1ccccc1 (stereo not given) | > 1 mM
CN(CCO)c1ccc(C(=O)c2ccc(N(C)CCO)cc2)cc1 | > 1 mM
Oc1ccc(/C=N/c2ccc(Cc3ccc(/N=C/c4ccc(O)c(O)c4)cc3)cc2)cc1O | > 1 mM
O=C(O)CSCC(=O)N1CCN(c2cc(C(F)(F)F)nc3ccccc23)CC1 | > 1 mM
O=c1cc(CSc2n[nH]c(=O)n2C2Cc3ccccc3C2)c2ccc(O)cc2o1 | > 0.3 mM
O=C1c2ccccc2C(=O)c2c(NCCc3ccc(O)cc3)ccc(NCCc3ccc(O)cc3)c21 | 0.0567 mM
Oc1ccc(CCc2nnc(S)n2-c2ccc(Cl)cc2)cc1 | > 0.3 mM
O=C1c2cccc3c(SCCO)ccc(c23)C(=O)N1CCc1ccccn1 | > 1 mM
